Data as given in US20240158446A1, “CYCLIC COMPOUND HAVING SELECTIVE INHIBITORY ACTION ON KRAS OVER HRAS AND NRAS” (CHUGAI SEIYAKU KABUSHIKI KAISHA, priority 2021, published 2024).
*1 amine or outer side, *2 acyl side, *3 side chain or, on linkers, in order; H or OH if unused. Where a SMILES comes first, the peptide text is derived from it. Bridges are numbered along the chain shown (N, C = ends). [ ]: non-standard residue; d: D form. The star is where a group is joined. X47 = CC(C)(C)CCN([C@@H](Cc1ccc(C(F)(F)F)cc1)C(=O)[*:2])[*:1]; hPhe(3-Cl-4-CF3) = N[C@@H](CCc1ccc(C(F)(F)F)c(Cl)c1)C(=O)O; NPrPhe(4-CF3) = CCCN[C@@H](Cc1ccc(C(F)(F)F)cc1)C(=O)O; 3Oxa8azabicyclo(3.2.1)octane = C1CC2COCC1N2*; NMeGly(cPent) = CN[C@H](C(=O)O)C1CCCC1; NMeD = CN[C@@H](CC(=O)O)C(=O)O; NMeL = CN[C@@H](CC(C)C)C(=O)O; Morpholide = C1CN(*)CCO1; NMeA = CN[C@@H](C)C(=O)O; Ac5c = NC1(C(=O)O)CCCC1; Aze = O=C(O)[C@@H]1CCN1; Sar = CNCC(=O)O

How the values were obtained:
[1] = target: GDP-bound HRAS wild-type protein (Homo sapiens, UniProt P01112); assay: Binding to HRAS by surface plasmon resonance (SPR), Single Cycle Kinetics; conditions: SPR, GDP-bound HRAS wild-type protein vs GDP-bound KRAS wild-type protein
Chain of GDP-bound HRAS wild-type protein (P01112 whole entry): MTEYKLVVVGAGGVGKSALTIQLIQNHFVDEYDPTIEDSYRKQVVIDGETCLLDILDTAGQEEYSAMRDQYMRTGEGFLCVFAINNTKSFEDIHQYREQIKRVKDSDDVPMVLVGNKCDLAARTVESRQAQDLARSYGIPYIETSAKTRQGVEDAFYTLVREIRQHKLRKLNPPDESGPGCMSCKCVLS

[2] = target: GDP-bound NRAS wild-type protein (Homo sapiens, UniProt P01111); assay: Binding to NRAS by surface plasmon resonance (SPR), Single Cycle Kinetics; conditions: SPR, GDP-bound NRAS wild-type protein vs GDP-bound KRAS wild-type protein
Chain of GDP-bound NRAS wild-type protein (P01111 whole entry): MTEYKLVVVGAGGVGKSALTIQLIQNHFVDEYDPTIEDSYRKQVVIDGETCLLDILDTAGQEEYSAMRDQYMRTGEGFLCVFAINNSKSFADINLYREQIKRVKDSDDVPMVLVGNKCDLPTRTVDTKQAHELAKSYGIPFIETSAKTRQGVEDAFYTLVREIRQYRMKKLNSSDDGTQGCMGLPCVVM

## CC[C@H](C)[C@@H]1NC(=O)[C@H](CC(C)C)N(C)C(=O)C[C@@H](C(=O)N2CCOCC2)N(C)C(=O)[C@H](C2CCCC2)N(C)C(=O)C2(CCCC2)NC(=O)[C@@H]2CCCN2C(=O)[C@H](CCc2ccc(C(F)(F)F)c(Cl)c2)NC(=O)CN(C)C(=O)[C@H](Cc2ccc(C(F)(F)F)cc2)N(CCC(C)(C)C)C(=O)CN(C)C(=O)CN(C)C1=O [PP0127] ([NMeL]I[Sar][Sar][X47][Sar][hPhe(3-Cl-4-CF3)]P[Ac5c][NMeGly(cPent)][NMeD]-Morpholide; lactam N-11)
[1]
  HRAS/KRAS (ratio of KD value for HRAS to KD value for KRAS): C (A compound having a KD ratio of 0.1 or more and less than 3 is denoted as C)
[2]
  NRAS/KRAS (ratio of KD value for NRAS to KD value for KRAS): C (A compound having a KD ratio of 0.1 or more and less than 3 is denoted as C)

## CCCN1C(=O)[C@@H]2CCN2C(=O)[C@H](C)N(C)C(=O)[C@H]([C@@H](C)CC)NC(=O)[C@H](CC(C)C)N(C)C(=O)C[C@@H](C(=O)N2C3CCC2COC3)N(C)C(=O)[C@H](C2CCCC2)N(C)C(=O)C2(CCCC2)NC(=O)[C@@H]2CCCN2C(=O)[C@H](CCc2ccc(C(F)(F)F)c(Cl)c2)NC(=O)CN(C)C(=O)[C@@H]1Cc1ccc(C(F)(F)F)cc1 [PP0182] ([NMeL]I[NMeA][Aze][NPrPhe(4-CF3)][Sar][hPhe(3-Cl-4-CF3)]P[Ac5c][NMeGly(cPent)][NMeD]-{3Oxa8azabicyclo(3.2.1)octane}; lactam N-11)
[1]
  HRAS/KRAS (ratio of KD value for HRAS to KD value for KRAS): B (a compound having 3 or more and less than 10 is denoted as B)
[2]
  NRAS/KRAS (ratio of KD value for NRAS to KD value for KRAS): C (A compound having a KD ratio of 0.1 or more and less than 3 is denoted as C)

## CCO[C@@H]1C[C@H]2C(=O)NC3(CCC3)C(=O)N(C)[C@@H](C3CCCC3)C(=O)N(C)[C@H](C(=O)N(C)C)CC(=O)N(C)[C@@H](CC(C)C)C(=O)N[C@@H]([C@@H](C)CC)C(=O)N(C)CC(=O)N(C)[C@H]3CCCCCN(C3=O)[C@@H](Cc3ccc(C(F)(F)F)cc3)C(=O)N(C)CC(=O)N[C@@H](CCc3cc(F)c(C(F)(F)F)c(F)c3)C(=O)N2C1 [PP0469]
[1]
  HRAS/KRAS (ratio of KD value with respect to HRAS to KD value with respect to KRAS): B (a compound having 3 or more and less than 10 is denoted as B)
[2]
  NRAS/KRAS (ratio of KD value with respect to NRAS to KD value with respect to KRAS): B (a compound having 3 or more and less than 10 is denoted as B)

## CC[C@H](C)[C@@H]1NC(=O)[C@H](CC(C)C)N(C)C(=O)C[C@@H](C(=O)N2CCOCC2)N(C)C(=O)[C@H](C2CCCC2)N(C)C(=O)[C@](C)(CC)NC(=O)[C@@H]2CCCN2C(=O)[C@H](CCc2cc(F)c(C(F)(F)F)c(F)c2)NC(=O)CN(C)C(=O)[C@H](Cc2ccc(C(F)(F)F)cc2)N2CCCCC[C@@H](C2=O)N(C)C(=O)CN(C)C1=O [PP0500]
[1]
  HRAS/KRAS (ratio of KD value with respect to HRAS to KD value with respect to KRAS): B (a compound having 3 or more and less than 10 is denoted as B)
[2]
  NRAS/KRAS (ratio of KD value with respect to NRAS to KD value with respect to KRAS): B (a compound having 3 or more and less than 10 is denoted as B)

## CC[C@H](C)[C@@H]1NC(=O)[C@H](CC(C)C)N(C)C(=O)C[C@@H](C(=O)N2CCOCC2)N(C)C(=O)[C@H](C2CCCC2)N(C)C(=O)C2(COC2)NC(=O)[C@@H]2CCCN2C(=O)[C@H](CCc2cc(F)c(C(F)(F)F)c(F)c2)NC(=O)CN(C)C(=O)[C@H](Cc2ccc(C(F)(F)F)cc2)N2CCCCC[C@@H](C2=O)N(C)C(=O)CN(C)C1=O [PP0501]
[1]
  HRAS/KRAS (ratio of KD value with respect to HRAS to KD value with respect to KRAS): B (a compound having 3 or more and less than 10 is denoted as B)
[2]
  NRAS/KRAS (ratio of KD value with respect to NRAS to KD value with respect to KRAS): B (a compound having 3 or more and less than 10 is denoted as B)

## CC[C@H](C)[C@@H]1NC(=O)[C@H](CC(C)C)N(C)C(=O)C[C@@H](C(=O)N2CCOCC2)N(C)C(=O)[C@H](C2CCC2)N(C)C(=O)C2(CCCC2)NC(=O)[C@@H]2CCCN2C(=O)[C@H](CCc2cc(F)c(C(F)(F)F)c(F)c2)NC(=O)CN(C)C(=O)[C@H](Cc2ccc(C(F)(F)F)cc2)N2CCCCC[C@@H](C2=O)N(C)C(=O)CN(C)C1=O [PP0504]
[1]
  HRAS/KRAS (ratio of KD value with respect to HRAS to KD value with respect to KRAS): B (a compound having 3 or more and less than 10 is denoted as B)
[2]
  NRAS/KRAS (ratio of KD value with respect to NRAS to KD value with respect to KRAS): B (a compound having 3 or more and less than 10 is denoted as B)

## CC[C@H](C)[C@@H]1NC(=O)[C@H](CC(C)C)N(C)C(=O)C[C@@H](C(=O)N2C3CCC2COC3)N(C)C(=O)[C@H](C2CCCC2)N(C)C(=O)C2(CCCC2)NC(=O)[C@@H]2CCCN2C(=O)[C@H](CCc2cc(F)c(C(F)(F)F)c(F)c2)NC(=O)CN(C)C(=O)[C@H](Cc2ccc(C(F)(F)F)cc2)N2CCCCC[C@@H](C2=O)N(C)C(=O)CN(C)C1=O [PP0511]
[1]
  HRAS/KRAS (ratio of KD value with respect to HRAS to KD value with respect to KRAS): B (a compound having 3 or more and less than 10 is denoted as B)
[2]
  NRAS/KRAS (ratio of KD value with respect to NRAS to KD value with respect to KRAS): A (a compound having 10 or more and less than 20 is denoted as A)
